{
  "source": "patent US7091040B1",
  "about": "“P450/acetaminophen genetically directed enzyme prodrug therapy (GDEPT)” (Innovata PLC, priority 1999, dated 2006)",
  "tested_on": "MDA-MB-361 cells",
  "assay": "Bystander effect on viability of MDA-MB-361 cells co-cultured with H1A2 MZ cells in the presence of acetaminophen, trypan blue exclusion",
  "format": "cell-based, human",
  "conditions": "for viability at 4000 µM: Homo sapiens",
  "experimental": "Tumour cells or V79 MZ cells (non transfected, parental cells) were co-cultured overnight with various mixtures of H1A2 MZ cells (as indicated in the Table), washed with PBS and incubated with 4 mM acetaminophen in PBS for 6 h at 37° C. the cells were then washed once with PBS and maintained for either 24 or 48 h in culture medium appropriate to each cell type, as detailed in the Methods section. At 0, 6, 24 or 48 h the cells were washed in PBS and viability of the mixed cell population determined by trypan blue exclusion. The data shown are mean values±SEM of 4 separate determinations. Statistical significance was determined at each time point by comparing viability measurements in the mixed cell populations with both the viability determined at 0 h and in the absence of H1A2 MZ cells in the mixture 2×2 contingency tables using the 2-tailed Chi-squared test with Yate's correction. Viability was determined in a total of 1500 cells at each time point. Levels of significance are indicated as **p<0.001; ***p<0.0001;\nFor cell viability experiments 200,000 cells per well were plated on 12 well plates (Beckton-Dickenson, Oxford, UK), using the medium and conditions required by the tumour cell line and allowed to adhere overnight. After this the cells were washed with PBS before the addition of acetaminophen in 0.1 ml PBS (concentrations of 0.1–20 mM acetaminophen were dissolved in PBS by sonication) and then maintained at 37° C. At the appropriate time points, cells were removed from the plates by trypsinisation and collected by centrifugation. Cell viability was measured as ability to exclude trypan blue. Cells were counted at ×100 magnification using an Improved Neubauer haemocytometer; all cell counts are the mean of duplicate determinations of five fields from duplicate experiments.\nV79 MZ Chinese hamster cells were maintained in Dulbecco-Vogt's modified Eagle's Medium (DMEM) supplemented with 10% foetal calf serum 9FCS), 2 mM L-glutamine, penicillin (100 U/ml and streptomycin (100 μg/ml) (all tissue culture reagents were obtained from Gibco BRL, Paisley, UK). H1A2 MZ cells, which are V79 MZ cells transfected with the human CYP1A2 gene, were also maintained in supplemented DMEM with the addition of geneticin at a concentration of 4 mg/ml. SK-OV-3 cells were grown in DMEM supplemented with 15% FCS and 2 mM L-glutamine, without the addition of antibiotics. RPMI-1640 medium with 10% FCS, 2 mM L-glutamine, penicillin (100 U/ml) and streptomycin ([…]) was required by the HCT116 cells. These cell lines were maintained at 37° C. with 100% humidity and 5% CO2. […] At confluence cells were removed from tissue culture flasks by inubation with trypsin-EDTA for 5 min, diluted 1:3–1:6 in fresh medium and seeded onto fresh flasks. The tumour cell lines were obtained from the European Collection of Cell Cultures.",
  "data": [
    {"smiles": "CC(=O)Nc1ccc(O)cc1", "note": "[acetaminophen]", "values": [
      {"measurement": "viability at 4000 µM", "setting": "MDA-MB-361, 0 h, MDA-MB-361 cells + 5% H1A2 MZ cells, 4 mM acetaminophen in PBS, 0 h", "value": "98 ± 2", "unit": "%"},
      {"measurement": "viability at 4000 µM", "setting": "MDA-MB-361, 0 h, MDA-MB-361 cells, 0% H1A2 MZ cells, 4 mM acetaminophen in PBS, 0 h", "value": "96 ± 1", "unit": "%"},
      {"measurement": "viability at 4000 µM", "setting": "MDA-MB-361, 6 h, MDA-MB-361 cells + 5% H1A2 MZ cells, 4 mM acetaminophen in PBS, 6 h", "value": "85 ± 2", "unit": "%"},
      {"measurement": "viability at 4000 µM", "setting": "MDA-MB-361, 6 h, MDA-MB-361 cells, 0% H1A2 MZ cells, 4 mM acetaminophen in PBS, 6 h", "value": "98 ± 4", "unit": "%"},
      {"measurement": "viability at 4000 µM", "setting": "MDA-MB-361, MDA-MB-361 cells + 50% H1A2 MZ cells, 4 mM acetaminophen 6 h, then 24 h in culture medium", "value": 18, "unit": "%"},
      {"measurement": "viability at 4000 µM", "setting": "MDA-MB-361, MDA-MB-361 cells, 0% H1A2 MZ cells, 4 mM acetaminophen 6 h, then 24 h in culture medium", "value": "95 ± 3", "unit": "%"},
      {"measurement": "viability at 4000 µM", "setting": "MDA-MB-361, MDA-MB-361 cells, 0% H1A2 MZ cells, 4 mM acetaminophen 6 h, then 48 h in culture medium", "value": "97 ± 1", "unit": "%"},
      {"measurement": "Viability (%)", "setting": "MDA-MB-361 cells + 50% H1A2 MZ cells, 4 mM acetaminophen 6 h, then 48 h in culture medium", "value": "no viable cells"},
      {"measurement": "susceptibility to cytotoxicity produced by the activation of acetaminophen", "setting": "MDA-MB-361 cells mixed with H1A2 MZ cells, 4 mM acetaminophen, 6 h", "value": "highly resistant to cytotoxicity"}
    ]}
  ]
}
